# ChEMBL document CHEMBL1201862, “PubChem BioAssay data set” (2004)
#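 Tested at 5 concentrations; 48 h exposure; 96-well plates; endpoints linearly interpolated, else capped at highest concentration. GI50: concentration for 50% inhibition of growth.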 Calls of active or inactive are those of the source. Cut-off read from the data, not from the text of the source: active = GI50 up to about 1.1 µM and inactive = higher.
# Key:
# Assay in all cases: NCI-60 cell line screen, 48 h
# [1] = system: TK-10
# [2] = system: COLO 205
# [3] = system: UACC-257
# [4] = system: NCI-H522
# [5] = system: KM12
# [6] = system: Hs-578T
# [7] = system: U-251
# [8] = system: SK-MEL-28
# [9] = system: UACC-62
# [10] = system: SNB-75
# [11] = system: HOP-92
# [12] = system: HCT-15
# [13] = system: CAKI-1
# [14] = system: SN12C
# [15] = system: SK-OV-3
# [16] = system: HCC 2998
# [17] = system: NCI-H460
# [18] = system: A498
# [19] = system: UO-31
# [20] = system: OVCAR-5
# [21] = system: T47D
# [22] = system: DU-145
# [23] = system: MDA-MB-435
# [24] = system: SK-MEL-5
# [25] = system: BT-549
# [26] = system: SF-539
# [27] = system: OVCAR-8
# [28] = system: RXF 393
# [29] = system: SW-620
# [30] = system: HOP-62
# [31] = system: PC-3
# [32] = system: MDA-MB-231
# [33] = system: M14
# [34] = system: SNB-19
# [35] = system: NCI-H23
# [36] = system: LOX IMVI
# [37] = system: 786-0
# [38] = system: MCF7
# [39] = system: SF-268
# [40] = system: MDA-N
# [41] = system: A549
# [42] = system: K562
# [43] = system: NCI/ADR-RES
# [44] = system: HCT-116
# [45] = system: RPMI-8226
# [46] = system: Malme-3M
# [47] = system: EKVX
# [48] = system: ACHN
# [49] = system: SF-295
# [50] = system: OVCAR-4
# [51] = system: OVCAR-3
# [52] = system: SK-MEL-2
# [53] = system: IGROV-1
# [54] = system: CCRF-CEM
# [55] = system: NCI-H226
# [56] = system: MOLT-4
smiles,measurement,setting,value
O=c1[nH]cc(-c2c[nH]c3ccccc23)nc1-c1c[nH]c2ccccc12,GI50,[1],11.7 µM (inactive)
same,GI50,[2],10.9 µM (inactive)
same,GI50,[3],13 µM (inactive)
same,GI50,[4],6.79 µM (inactive)
same,GI50,[5],4.95 µM (inactive)
same,GI50,[6],14.2 µM (inactive)
same,GI50,[7],21 µM (inactive)
same,GI50,[8],15.2 µM (inactive)
same,GI50,[9],11.1 µM (inactive)
same,GI50,[10],10.3 µM (inactive)
same,GI50,[11],12.3 µM (inactive)
same,GI50,[12],11.1 µM
same,GI50,[13],3.28 µM (inactive)
same,GI50,[14],13.2 µM (inactive)
same,GI50,[15],13.4 µM (inactive)
same,GI50,[16],9.57 µM (inactive)
same,GI50,[17],13.8 µM (inactive)
same,GI50,[18],14.7 µM (inactive)
same,GI50,[19],8.51 µM (inactive)
same,GI50,[20],11.2 µM (inactive)
same,GI50,[21],8.55 µM (inactive)
same,GI50,[22],13.2 µM (inactive)
same,GI50,[23],3.29 µM (inactive)
same,GI50,[24],13.4 µM (inactive)
same,GI50,[25],15.3 µM (inactive)
same,GI50,[26],8.63 µM (inactive)
same,GI50,[27],12.8 µM (inactive)
same,GI50,[28],2.74 µM (inactive)
same,GI50,[29],4.9 µM (inactive)
same,GI50,[30],12.5 µM (inactive)
same,GI50,[31],14.5 µM (inactive)
same,GI50,[32],22.3 µM (inactive)
same,GI50,[33],10.7 µM (inactive)
same,GI50,[34],15.8 µM (inactive)
same,GI50,[35],14.7 µM (inactive)
same,GI50,[36],11.2 µM (inactive)
same,GI50,[37],11.3 µM (inactive)
same,GI50,[38],10.2 µM (inactive)
same,GI50,[39],13 µM (inactive)
same,GI50,[40],2.47 µM (inactive)
same,GI50,[41],21 µM (inactive)
same,GI50,[42],2.96 µM (inactive)
same,GI50,[43],16.4 µM (inactive)
same,GI50,[44],10.8 µM (inactive)
same,GI50,[45],9.73 µM (inactive)
same,GI50,[46],11.2 µM (inactive)
same,GI50,[47],12.2 µM (inactive)
same,GI50,[48],11.6 µM (inactive)
same,GI50,[49],4.53 µM (inactive)
same,GI50,[50],6.58 µM (inactive)
same,GI50,[51],9.51 µM (inactive)
same,GI50,[52],14.8 µM (inactive)
same,GI50,[53],2.92 µM (inactive)
CCC(C)[C@H](NC(=O)[C@H](Cc1ccccc1)NC(=O)N(CC)c1ccccc1)C(=O)N[C@@H](CC(C)C)C(=O)OC (stereo partly specified),GI50,[1],37.9 µM (inactive)
same,GI50,[2],60.1 µM (inactive)
same,GI50,[3],24.9 µM (inactive)
same,GI50,[5],22 µM (inactive)
same,GI50,[54],21.4 µM (inactive)
same,GI50,[6],63.1 µM (inactive)
same,GI50,[7],38.5 µM (inactive)
same,GI50,[8],40.3 µM (inactive)
same,GI50,[9],48 µM (inactive)
same,GI50,[10],70.5 µM (inactive)
same,GI50,[11],40.7 µM (inactive)
same,GI50,[12],38.6 µM
same,GI50,[13],58.5 µM (inactive)
same,GI50,[14],38.6 µM (inactive)
same,GI50,[15],> 100 µM (inactive)
same,GI50,[16],42.2 µM (inactive)
same,GI50,[55],18 µM (inactive)
same,GI50,[18],> 100 µM (inactive)
same,GI50,[19],24.3 µM (inactive)
same,GI50,[20],> 100 µM (inactive)
same,GI50,[21],43.5 µM (inactive)
same,GI50,[22],33.9 µM (inactive)
same,GI50,[23],24 µM (inactive)
same,GI50,[24],26.7 µM (inactive)
same,GI50,[25],33.5 µM (inactive)
same,GI50,[26],24.2 µM (inactive)
same,GI50,[27],34 µM (inactive)
same,GI50,[28],74.1 µM (inactive)
same,GI50,[56],10.7 µM (inactive)
same,GI50,[29],31.6 µM (inactive)
same,GI50,[30],33 µM (inactive)
same,GI50,[31],35.3 µM (inactive)
same,GI50,[32],27.7 µM (inactive)
same,GI50,[33],37.6 µM (inactive)
same,GI50,[34],35.4 µM (inactive)
same,GI50,[35],31 µM (inactive)
same,GI50,[36],30.9 µM (inactive)
same,GI50,[37],40.6 µM (inactive)
same,GI50,[38],25.7 µM (inactive)
same,GI50,[39],36.5 µM (inactive)
same,GI50,[40],45.1 µM (inactive)
same,GI50,[41],52.5 µM (inactive)
same,GI50,[43],> 100 µM (inactive)
same,GI50,[44],32.4 µM (inactive)
same,GI50,[45],8.93 µM (inactive)
same,GI50,[46],31 µM (inactive)
same,GI50,[47],49.3 µM (inactive)
same,GI50,[48],25.6 µM (inactive)
same,GI50,[49],59.7 µM (inactive)
same,GI50,[50],94.4 µM (inactive)
same,GI50,[51],24.8 µM (inactive)
same,GI50,[52],36.6 µM (inactive)
same,GI50,[53],20.4 µM (inactive)
